The text below walks through data of patent US20210220408A1, “ARYL HYDROCARBON RECEPTOR ANTAGONISTS AND METHODS OF USE” (Magenta Therapeutics Inc., priority 2018, published 2021).

pIC50: −log10 of the molar value.

This assay has as its target T1, aryl hydrocarbon receptor (AHR) (Homo sapiens, UniProt P35869).
T1 sequence (P35869 11-848): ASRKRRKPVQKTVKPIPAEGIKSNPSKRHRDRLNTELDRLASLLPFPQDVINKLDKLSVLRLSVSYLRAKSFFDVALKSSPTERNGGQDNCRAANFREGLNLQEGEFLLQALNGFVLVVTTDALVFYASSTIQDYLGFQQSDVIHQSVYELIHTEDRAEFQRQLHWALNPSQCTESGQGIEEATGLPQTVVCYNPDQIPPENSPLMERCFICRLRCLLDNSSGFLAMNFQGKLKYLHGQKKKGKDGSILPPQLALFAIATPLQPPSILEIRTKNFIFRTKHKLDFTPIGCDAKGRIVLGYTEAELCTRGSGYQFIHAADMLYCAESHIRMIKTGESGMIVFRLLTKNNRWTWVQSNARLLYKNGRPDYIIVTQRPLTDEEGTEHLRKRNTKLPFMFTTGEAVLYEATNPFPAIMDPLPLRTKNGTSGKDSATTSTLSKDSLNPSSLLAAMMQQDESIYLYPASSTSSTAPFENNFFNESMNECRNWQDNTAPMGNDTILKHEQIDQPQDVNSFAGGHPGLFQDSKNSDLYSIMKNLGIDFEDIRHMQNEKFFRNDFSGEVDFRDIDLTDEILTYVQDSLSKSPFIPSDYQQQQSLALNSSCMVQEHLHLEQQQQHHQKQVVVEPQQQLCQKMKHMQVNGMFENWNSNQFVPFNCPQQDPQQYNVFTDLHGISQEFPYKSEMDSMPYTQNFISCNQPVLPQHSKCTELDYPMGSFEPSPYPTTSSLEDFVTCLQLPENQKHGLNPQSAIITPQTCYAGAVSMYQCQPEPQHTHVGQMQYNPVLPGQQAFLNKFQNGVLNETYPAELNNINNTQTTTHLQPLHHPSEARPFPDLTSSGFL
The assay can be described thus: DRE-Luciferase reporter high-throughput screen (AHR antagonist, VAF347-activated). (In general: Reporter assays use an easily measured gene product as a stand-in for the process of interest.)

Excerpt: HepG2 hepatocellular carcinoma cells were transfected with a dioxin-response element (DRE) Firefly luciferase reporter construct. Luciferase transcription was activated with the aryl hydrocarbon receptor (AHR) agonist, VAF347. Addition of an AHR antagonist results in inhibition of the luciferase transcription and a loss of signal in the assay.
HepG2, a hepatocellular carcinoma cell line, was transfected with the dioxin-response element Firefly luciferase reporter construct using the TransIT-transfection system. Prior to transfection, HepG2 cells (Sigma) were cultured at 90% confluency in Eagle's Modified Essential Medium (Sigma)+2 mM Glutamine (Sigma), +1^% Non Essential Amino Acids (Sigma)+10% Fetal Bovine Serum (Hyclone) and harvested and counted (Biorad TC20 cell counter). OptilMEM serum-free media and TransIT (Mirus) were mixed for transfection in 150 mm dishes by adding 240 μL Transit to 3.0 mL OptiMEM, vortexing briefly to mix, and incubating at room temperature for 20 minutes. The DNA mixture was prepared by adding 80 μg plasmid (pGudLuc6.1 plasmid, Garrison et al., (1996) Fundam. Appl. Toxicol., 30, 194-203), inverting to mix, and incubating at room temperature for 30 minutes. 30×10^6 HepG2 cells were seeded in 30 mL media and 3.3 mL of the DNA, OptiMEM, and TransIT mixture was added dropwise to the plate. The plate was mixed by rocking and incubated at 37° C./5% CO2 overnight. The next day, cells were harvested by aspirating media, washing once with sterile phosphate buffered saline (PBS, Gibco), trypsinzing with 0.05% Trypsin (Corning) and harvesting cells with culture medium, and freezing with Cell Freezing Media (Gibco) at 5 50×10^6 cells/vial in 1 mL/vial.
Transiently-transfected frozen HepG2 cells with DRE-Luciferase, were thawed in a 37° C. water bath and resuspended in complete media. 4 μL cells at 15,000 cells per well was transferred into the wells of a 1536-well Alphaplate assay plate (PerkinElmer) using TEMPEST liquid dispenser. The plate was centrifuged at 1000 rpm for 1 minute. 30 nL of the controls (1 μM (S)-2-(6-((2-(1H-indol-3-yl)ethyl)amino)-2-(5-fluoropyridin-3-yl)-9H-purin-9-yl)propan-1-ol or 100% DMSO) were transferred to the assay plate using the Pin Tool on BRAVO. 1 μL of VAF347 (15 nM final concentration) in complete media was added to the wells using TEMPEST. The plate was centrifuged at 1000 rpm for 1 minute and incubated at 37° C./5% CO2 overnight. After incubation, the plate was removed from the incubator and brought to room temperature. 2 μL of room temperature Steady-Glo luciferase detection reagent (Promega) was added to the wells with TEMPEST. The plate was centrifuged at 2000 rpm for 1 minute, sealed with clear plastic seal and kept at room temperature for 15 minutes prior to measuring luminescence on ENVISION.
Approximately 166,000 compounds were screened in 132 1536-well plates in the luciferase reporter gene assay at a final concentration of 12 μM. […] Each compound was tested at 0.1 μM, 1.0 μM, and 10 μM in the DRE luciferase assay and Cell Titer Glo cytotoxicity assay (Promega). […] 512 compounds were selected for 10-point dose-response in the AHR luciferase reporter assay and the Cell Titer Glo cytotoxicity assay.

`Cc1ccc2nc(C3=C(N)N(CC(C)C)CC3=O)[nH]c2c1` [113A] gave a pIC50 of 5.70 to 6.00. The molecule `O=C(Nc1ccc(Cl)cc1)c1ccc(-c2ccccn2)s1` [15B] showed a pIC50 of 6.00 to 6.30. With `Cc1ccccc1OCCNC(=O)c1cc(Cl)ccc1F` [141A], the pIC50 is 5.70 to 6.00.

`COc1ccc(Br)cc1-c1nc(Cn2cnc(C#N)n2)cs1` [35B] had a negative-log IC50 (pIC50) of less than 5.70. Consider `CN(Cc1ccn(C)n1)C(=O)c1cc(-c2ccc(Cl)c(Cl)c2)[nH]n1` [104A], for which the pIC50 was less than 5.70. `Cc1c(-c2nc(-c3ccc(C(C)(C)C)cc3)no2)n(C)oc1=O` [87B] had a pIC50 of 6.30 to 6.70. With `Cc1ccc(NC(=O)c2cc(C(C)C)n[nH]2)cc1` [24A] the figure was less than 5.70. `CC(=O)c1sc(-c2ccc(Oc3ncnc4sccc34)cc2)nc1C` [64A] gave a pIC50 of 5.70 to 6.00.

For the molecule `CCOC(=O)c1sc(NC(=O)c2cn3ccccc3n2)cc1C` [compound 40], the pIC50 was greater than 6.70. `CCN1C(=O)C[C@@H]2[C@@H]1CCN2S(=O)(=O)Cc1ccc(C)cc1` [182A] showed a pIC50 of 5.70 to 6.00. Consider `N#Cc1ccc(OCc2ccc3nonc3c2)cc1` [174A], for which the pIC50 is less than 5.70.

With `Cc1cc(C)c2cc(C#N)c(Oc3cccnc3)nc2c1` [158A], the pIC50 was 5.70 to 6.00.

`CSc1ccccc1NC(=O)c1ccc(-c2ccccc2)cc1` [4B] had a pIC50 of less than 5.70. Molecule `Cc1ccc2nc3c(c(N)c2c1)CCN3c1ccccc1` [124B] gave a pIC50 of 6.00 to 6.30.

`COc1ccc(Cl)cc1C(=O)Nc1ccc(NC(=O)c2cccc(S(C)(=O)=O)c2)c(Cl)c1` [10B] showed a pIC50 of 6.30 to 6.70. `N#Cc1cc(NCCOCC(F)(F)F)nc2ccc([N+](=O)[O-])cc12` [154A] showed a pIC50 of less than 5.70. Molecule `N#Cc1c(NC(=O)Nc2ccc(Cl)c(Cl)c2)sc2c1C1CCN2CC1` [192A] showed a pIC50 of 5.70 to 6.00. The molecule `CN(C)c1ccc(-c2nnc(-c3cccs3)o2)cc1` [compound 149] showed a pIC50 of 6.00 to 6.30.

In turn, `CNC(=O)c1ccc(-c2cc(C(F)(F)F)nn2C)s1` [60B] had a pIC50 of 5.70 to 6.00. `COc1ccnc(N2CCN(c3ccc(Cl)cc3)CC2)c1C#N` [compound 80] gave a pIC50 greater than 6.70. Molecule `Cn1c(COc2cccc3ccccc23)nc2ccccc21` [67B] had a pIC50 of 5.70 to 6.00. Regarding `CNC(=O)N(C)C(=O)c1cnc2onc(-c3ccc(C)cc3)c2c1` [173A], the pIC50 is 5.70 to 6.00.

`C=C(Cc1nnc(C(C)C)s1)c1cn(CCOC)cc2c(=O)n(-c3ccccc3)nc1-2` [175A]: the pIC50 is less than 5.70.

In turn, `CC(=O)c1oc2ccc3c(C)cc(=O)oc3c2c1C` [118B] had a pIC50 of less than 5.70.

`COc1ccccc1C(=O)Nc1c(C)cc(C)c2cccnc12` [27B] showed a pIC50 of 5.70 to 6.00.

On to `NC(=O)c1cc(-c2ccc(Cl)s2)nc2ccccc12` [156A], for which the pIC50 was 5.70 to 6.00. Take `COc1ccc2c(c1)-c1cccc([N+](=O)[O-])c1CC2C#N` (centres unmarked) [compound 152]: the pIC50 is 6.00 to 6.30.

In the case of `CCNC(=O)c1sc2ncc(C(=O)c3ccc(C)cc3)n2c1C` [compound 66], the pIC50 was 6.30 to 6.70.

`c1cncc(-c2noc(-c3cc(-c4cccs4)[nH]n3)n2)c1` [compound 144] showed a pIC50 of 6.00 to 6.30. In turn, `CSc1cc(CSc2ccc(Cl)cc2)nc(-c2ccccn2)n1` [85A] showed a pIC50 of 5.70 to 6.00.

As to `CCN(CC)c1ccc(NC(=O)c2cccnc2O)cc1` [12A], the negative logarithm of the IC50 (pIC50) is 5.70 to 6.00.

Consider `CC(C)NC(=O)c1nc(-c2cn(-c3ccccc3)cn2)n2ccccc12` [101A], for which the pIC50 is 5.70 to 6.00.

Molecule `CCCn1cnc(-c2nc(C(=O)Nc3cc(C)ccc3C)c3ccccn23)c1` [46A] gave a pIC50 of 5.70 to 6.00. Molecule `CC(C)(C)c1cc(C(=O)Nc2ccc3c(c2)CCN3S(C)(=O)=O)nc2ncnn12` [compound 48] gave a pIC50 greater than 6.70.

`Cc1ccc2[nH]c(SCc3ccccc3C)nc2c1` [64B]: the pIC50 is 6.00 to 6.30. For the molecule `Cc1c(Br)c(C(=O)N2CCc3ccccc32)nn1C` [61B], the pIC50 was 5.70 to 6.00. The value for `O=C(c1csc(-c2ccc(Cl)cc2)c1)N1CCCCC1` [148A] was 5.70 to 6.00. `CCCNC(=O)c1cc2cc3ccc(C)cc3nc2o1` [184A] had a pIC50 of 5.70 to 6.00.

`O=c1[nH]nc(CNc2ccc(Cl)cc2Cl)c2ccccc12` [compound 156] gave a pIC50 of 6.00 to 6.30. Turning to `Cc1c(-c2cc(NC(=O)C3CC3)[nH]n2)sc2ccc(Cl)cc12` [105A], the pIC50 is less than 5.70. `Cc1cc2ccccc2n2c(SCC(=O)Nc3ccccc3F)nnc12` [187A]: the pIC50 is less than 5.70. The molecule `Cc1cc2cc(Nc3nccc(C(F)(F)F)n3)ccc2[nH]1` [compound 84] showed a pIC50 of 6.30 to 6.70. The molecule `O=C(NCCC1=CCCCC1)c1[nH]nc2c1CCCC2` [109B] showed a negative logarithm of the IC50 (pIC50) of 5.70 to 6.00. The value for `Fc1ccccc1OCc1cnn(-c2ccccc2)c1` [54B] was 6.00 to 6.30; that for `COc1ccc(-c2cc3ncc(-c4ccccc4)c(N)n3n2)cc1` [118A] was 5.70 to 6.00; that for `COc1ccc(N2CCN(c3nc(OC)nc(OC)n3)CC2)cc1` [68A] was 5.70 to 6.00. `CSc1nccc(NC(=O)c2cccc(C(F)(F)F)c2)n1` [14A] showed a pIC50 of less than 5.70. Regarding `COc1ccc(N2CCN(c3cc(C)nn4cnnc34)CC2)cc1` [74A], the pIC50 is less than 5.70. The value for `CCCCCc1ccc2c(C#N)c(OC)ccc2c1` [117B] was 5.70 to 6.00. Take `CN(C)C(=O)Oc1ccc(-c2cn3cc(C(F)(F)F)ccc3n2)cc1` [compound 103]: the negative-log IC50 (pIC50) is 6.00 to 6.30.

As for `COC(=O)c1cccc(NC(=O)c2nsc3ccccc23)c1` [compound 33], the pIC50 is 6.30 to 6.70. The molecule `COc1ccc(-c2cc(=O)c3cc(OC(=O)C(C)(C)C)ccc3o2)cc1` [110B] gave a pIC50 of 6.30 to 6.70. Regarding `CCOc1ccc(-n2nc3ccc(NC(=O)COc4ccccc4Cl)cc3n2)cc1` [73B], the pIC50 is 6.00 to 6.30.

As to `COc1ccc(Nc2ccc3ccccc3n2)cc1Cl` [157A], the pIC50 was 5.70 to 6.00. On to `O=C(Nc1ccc2[nH]c(-c3ccc(Br)o3)nc2c1)c1ccc([N+](=O)[O-])cc1` [41A], for which the pIC50 is less than 5.70. `Cc1ccc(NC(=O)CSc2nnc(C)c3ccccc23)cc1` [160A] had a pIC50 of 5.70 to 6.00. `COc1cccc(-c2cc(C(F)(F)F)nc(-n3cc(Cl)cn3)n2)c1` [86A] had a pIC50 of 5.70 to 6.00.

Take `O=[N+]([O-])c1ccc(-n2cnc(-c3ccc(F)cc3)c2)nc1` [52B]: the pIC50 was 6.30 to 6.70. The value for `O=C(Nc1cc2c(s1)CCCC2)c1ccccc1` [21B] was 5.70 to 6.00; that for `Cc1ccc(-c2cc(C(=O)NCc3cccnc3)c3cc(Br)ccc3n2)cc1` [155A] was 5.70 to 6.00. The molecule `Cn1c(SCc2ccccc2Cl)nnc1-c1csc(-c2cccnc2)n1` [53A] gave a negative logarithm of the IC50 (pIC50) of 5.70 to 6.00. Molecule `CNC(=O)c1ccc(CN(C)C(=O)c2ccc(-c3nnc(-c4ccccc4C)o3)cc2)cc1` [140A] showed a pIC50 of 5.70 to 6.00. Consider `N#Cc1ccccc1OCc1ccc(C(N)=O)cc1` [142A], for which the pIC50 is less than 5.70. Molecule `CCn1cc(C(=O)Nc2ccc(Br)cn2)cn1` [33A] had a pIC50 of less than 5.70. Molecule `C/C(=N\NC(=O)c1ccco1)c1ccc(Cl)c(Cl)c1` [43B] gave a pIC50 of less than 5.70.

For `c1cncc(-c2nnc3sc(-c4csc5c4CCCC5)nn23)c1` [99A], the pIC50 is 5.70 to 6.00. The value for `N#Cc1cnc2c(-c3ccc(Cl)cc3)cnn2c1` [70B] was 6.00 to 6.30; that for `CCCOc1ccc(-c2csc(N3CCCC3=O)n2)cc1` [compound 54] was 6.00 to 6.30; that for `CCCn1ncc(C(=O)Nc2ccc(N3CCCCC3)c(F)c2)c1C` [compound 35] was 6.00 to 6.30. The molecule `O=C(Nc1ccc(OC(F)(F)F)cc1)c1ccc(F)cc1` [6A] showed a pIC50 of 5.70 to 6.00. Consider `FC(F)(F)c1ccc(CSc2nccc(-c3cccnc3)n2)cc1` [46B], for which the pIC50 was 6.30 to 6.70.

Consider `COc1ccc(NC(=O)c2noc3c2CC(C)CC3)cc1` (centres unmarked) [30B], for which the pIC50 is 5.70 to 6.00.

In the case of `Cc1nc(-c2ccc(OC3=CC=C4N=NC(C(F)(F)F)N4N3)cc2)no1` (centres unmarked) [124A], the pIC50 is less than 5.70. `COC(=O)c1sc(-c2ccc(CC(C)C)cc2)cc1N` [146A]: the pIC50 is 5.70 to 6.00. `CCSc1ccc(-c2ccc(-n3cccn3)cc2)nn1` [91B] gave a negative logarithm of the IC50 (pIC50) of 5.70 to 6.00. In turn, `CC(=O)c1cc(NC(=O)c2ccc(Cl)cc2)c(=O)n(Cc2ccc(Cl)cc2)c1C` [29A] had a pIC50 of 5.70 to 6.00.

As to `O=C(Nc1cnc2ccc(C(F)(F)F)cn2c1=O)OCc1ccccc1` [compound 151], the negative logarithm of the IC50 (pIC50) is 6.00 to 6.30.

Regarding `Cc1nc(NC(=O)c2cc3nc(N(C)C)n(-c4ccccc4)c3s2)sc1C` [49A], the pIC50 was 5.70 to 6.00. In the case of `Cc1cn2cc(-c3ccc(F)cc3)nc2s1` [compound 67], the pIC50 is 6.00 to 6.30. For `CN1/C(=N/c2ccccc2)SCC1(O)c1ccc([N+](=O)[O-])cc1` (centres unmarked) [compound 142], the pIC50 was 6.30 to 6.70. For the molecule `COc1ccnc(Sc2ccc(Cl)cc2)c1C#N` [94A], the pIC50 is 5.70 to 6.00. Turning to `CN1CCN(c2nc(-c3cc(F)ccc3F)cs2)CC1` [56A], the pIC50 is less than 5.70. `N#Cc1ccc(OCc2ncc(C(F)(F)F)cc2Cl)cc1` [93A] showed a pIC50 of 5.70 to 6.00.

What is called pIC50 is −log10 of the IC50, conventionally taken in molar units. Read a low pIC50 as a large IC50.
